Assays:
Assay in all cases: relative viability (nuclei count vs DMSO), 5 days (fraction); higher = more cells survive
CAL-12T = test system: CAL-12T
Summary of the method: (§1)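 Five library-drug doses in √10 steps were combined with a fixed anchor-drug dose, or a single drug was given alone, by pin tool to lung cancer cell lines in 1536-well plates the day after seeding. Nuclei were stained and counted after 5 days. Relative viability is the nuclei count in treated wells over that in vehicle wells, taken as the median of duplicate plates.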

NCI-H1792 = test system: NCI-H1792
Summary of the method: as §1

A-427 = test system: A-427
Summary of the method: as §1

NCI-H2009 = test system: NCI-H2009
Summary of the method: as §1

NCI-H727 = test system: NCI-H727
Summary of the method: as §1

NCI-H23 = test system: NCI-H23
Summary of the method: as §1

SW 1573 = test system: SW 1573
Summary of the method: as §1

SK-LU-1 = test system: SK-LU-1
Summary of the method: as §1

NCI-H1755 = test system: NCI-H1755
Summary of the method: as §1

NCI-H1395 = test system: NCI-H1395
Summary of the method: as §1

HCC-827 = test system: HCC-827
Summary of the method: as §1

EMC-BAC-2 = test system: EMC-BAC-2
Summary of the method: as §1

HARA = test system: HARA
Summary of the method: as §1

HOP-62 = test system: HOP-62
Summary of the method: as §1

HCC-366 = test system: HCC-366
Summary of the method: as §1

NCI-H1915 = test system: NCI-H1915
Summary of the method: as §1

NCI-H2228 = test system: NCI-H2228
Summary of the method: as §1

NCI-H1437 = test system: NCI-H1437
Summary of the method: as §1

NCI-H460 = test system: NCI-H460
Summary of the method: as §1

COR-L 105 = test system: COR-L 105
Summary of the method: as §1

Structure (SMILES): COc1nc(C)cnc1NS(=O)(=O)c1cccnc1-c1ccc(-c2nnco2)cc1 [Zibotentan] + CC1(C)CCC(c2ccc(Cl)cc2)=C(CN2CCN(c3ccc(C(=O)NS(=O)(=O)c4ccc(N[C@H](CCN5CCOCC5)CSc5ccccc5)c(S(=O)(=O)C(F)(F)F)c4)cc3)CC2)C1 [Navitoclax] (partner 0.5 µM)
- relative viability (CAL-12T; first compound 0.08 µM): 1.27
- relative viability (CAL-12T; first compound 0.253 µM): 1
- relative viability (CAL-12T; first compound 0.8 µM): 1.45
- relative viability (CAL-12T; first compound 2.53 µM): 1.06
- relative viability (NCI-H1792; first compound 0.08 µM): 0.597
- relative viability (NCI-H1792; first compound 0.253 µM): 0.605
- relative viability (NCI-H1792; first compound 0.8 µM): 0.588
- relative viability (NCI-H1792; first compound 2.53 µM): 0.604
- relative viability (A-427; first compound 0.08 µM): 0.943
- relative viability (A-427; first compound 0.253 µM): 0.978
- relative viability (A-427; first compound 0.8 µM): 0.978
- relative viability (A-427; first compound 2.53 µM): 0.995
- relative viability (NCI-H2009; first compound 0.08 µM): 1.17
- relative viability (NCI-H2009; first compound 0.253 µM): 1.08
- relative viability (NCI-H2009; first compound 0.8 µM): 1.2
- relative viability (NCI-H2009; first compound 2.53 µM): 1.25
- relative viability (NCI-H727; first compound 0.08 µM): 0.48
- relative viability (NCI-H727; first compound 0.253 µM): 0.396
- relative viability (NCI-H727; first compound 0.8 µM): 0.48
- relative viability (NCI-H727; first compound 2.53 µM): 0.435
- relative viability (NCI-H23; first compound 0.08 µM): 0.906
- relative viability (NCI-H23; first compound 0.253 µM): 0.773
- relative viability (NCI-H23; first compound 0.8 µM): 0.872
- relative viability (NCI-H23; first compound 2.53 µM): 0.853
- relative viability (SW 1573; first compound 0.08 µM): 0.993
- relative viability (SW 1573; first compound 0.253 µM): 0.914
- relative viability (SW 1573; first compound 0.8 µM): 1.01
- relative viability (SW 1573; first compound 2.53 µM): 1.04
- relative viability (SK-LU-1; first compound 0.08 µM): 0.911
- relative viability (SK-LU-1; first compound 0.253 µM): 0.683
- relative viability (SK-LU-1; first compound 0.8 µM): 1.04
- relative viability (SK-LU-1; first compound 2.53 µM): 0.781
- relative viability (NCI-H1755; first compound 0.08 µM): 1.01
- relative viability (NCI-H1755; first compound 0.253 µM): 0.99
- relative viability (NCI-H1755; first compound 0.8 µM): 1
- relative viability (NCI-H1755; first compound 2.53 µM): 1.02
- relative viability (NCI-H1395; first compound 0.08 µM): 1.54
- relative viability (NCI-H1395; first compound 0.253 µM): 1.03
- relative viability (NCI-H1395; first compound 0.8 µM): 1.07
- relative viability (NCI-H1395; first compound 2.53 µM): 1.12
- relative viability (HCC-827; first compound 0.08 µM): 1.01
- relative viability (HCC-827; first compound 0.253 µM): 1
- relative viability (HCC-827; first compound 0.8 µM): 1.02
- relative viability (HCC-827; first compound 2.53 µM): 1.02
- relative viability (EMC-BAC-2; first compound 0.08 µM): 1.11
- relative viability (EMC-BAC-2; first compound 0.253 µM): 1.17
- relative viability (EMC-BAC-2; first compound 0.8 µM): 1.18
- relative viability (EMC-BAC-2; first compound 2.53 µM): 1.19
- relative viability (HARA; first compound 0.08 µM): 1.2
- relative viability (HARA; first compound 0.253 µM): 1.12
- relative viability (HARA; first compound 0.8 µM): 1.11
- relative viability (HARA; first compound 2.53 µM): 1.11
- relative viability (HOP-62; first compound 0.08 µM): 1.06
- relative viability (HOP-62; first compound 0.253 µM): 1.08
- relative viability (HOP-62; first compound 0.8 µM): 0.99
- relative viability (HOP-62; first compound 2.53 µM): 1
- relative viability (HCC-366; first compound 0.08 µM): 1.12
- relative viability (HCC-366; first compound 0.253 µM): 1.14
- relative viability (HCC-366; first compound 0.8 µM): 1.15
- relative viability (HCC-366; first compound 2.53 µM): 1.06
- relative viability (NCI-H1915; first compound 0.08 µM): 0.732
- relative viability (NCI-H1915; first compound 0.253 µM): 0.79
- relative viability (NCI-H1915; first compound 0.8 µM): 0.805
- relative viability (NCI-H1915; first compound 2.53 µM): 0.797
- relative viability (NCI-H2228; first compound 0.08 µM): 0.942
- relative viability (NCI-H2228; first compound 0.253 µM): 0.85
- relative viability (NCI-H2228; first compound 0.8 µM): 0.685
- relative viability (NCI-H2228; first compound 2.53 µM): 1.44
- relative viability (NCI-H1437; first compound 0.08 µM): 1.12
- relative viability (NCI-H1437; first compound 0.253 µM): 1.04
- relative viability (NCI-H1437; first compound 0.8 µM): 1.07
- relative viability (NCI-H1437; first compound 2.53 µM): 1.17
- relative viability (NCI-H460; first compound 0.08 µM): 1.41
- relative viability (NCI-H460; first compound 0.8 µM): 1.14
- relative viability (NCI-H460; first compound 2.53 µM): 1.23
- relative viability (COR-L 105; first compound 0.08 µM): 0.696
- relative viability (COR-L 105; first compound 0.253 µM): 0.649
- relative viability (COR-L 105; first compound 0.8 µM): 0.993
- relative viability (COR-L 105; first compound 2.53 µM): 0.84

Structure (SMILES): COc1nc(C)cnc1NS(=O)(=O)c1cccnc1-c1ccc(-c2nnco2)cc1 [Zibotentan] + CS(=O)(=O)CCNCc1ccc(-c2ccc3ncnc(Nc4ccc(OCc5cccc(F)c5)c(Cl)c4)c3c2)o1 [Lapatinib] (partner 2 µM)
- relative viability (CAL-12T; first compound 0.08 µM): 0.606
- relative viability (CAL-12T; first compound 0.8 µM): 0.55
- relative viability (CAL-12T; first compound 2.53 µM): 0.652
- relative viability (NCI-H1792; first compound 0.08 µM): 1.01
- relative viability (NCI-H1792; first compound 0.253 µM): 0.896
- relative viability (NCI-H1792; first compound 0.8 µM): 0.816
- relative viability (NCI-H1792; first compound 2.53 µM): 0.848
- relative viability (A-427; first compound 0.08 µM): 1.08
- relative viability (A-427; first compound 0.253 µM): 1.06
- relative viability (A-427; first compound 0.8 µM): 1.05
- relative viability (A-427; first compound 2.53 µM): 0.984
- relative viability (NCI-H2009; first compound 0.08 µM): 0.921
- relative viability (NCI-H2009; first compound 0.253 µM): 0.82
- relative viability (NCI-H2009; first compound 0.8 µM): 1
- relative viability (NCI-H2009; first compound 2.53 µM): 1.02
- relative viability (NCI-H727; first compound 0.08 µM): 0.879
- relative viability (NCI-H727; first compound 0.253 µM): 0.739
- relative viability (NCI-H727; first compound 0.8 µM): 0.781
- relative viability (NCI-H727; first compound 2.53 µM): 1.16
- relative viability (NCI-H23; first compound 0.08 µM): 1.22
- relative viability (NCI-H23; first compound 0.253 µM): 0.987
- relative viability (NCI-H23; first compound 0.8 µM): 1.19
- relative viability (NCI-H23; first compound 2.53 µM): 1.26
- relative viability (SW 1573; first compound 0.08 µM): 1.18
- relative viability (SW 1573; first compound 0.253 µM): 1.11
- relative viability (SW 1573; first compound 0.8 µM): 1.2
- relative viability (SW 1573; first compound 2.53 µM): 1.14
- relative viability (SK-LU-1; first compound 0.08 µM): 0.831
- relative viability (SK-LU-1; first compound 0.253 µM): 0.766
- relative viability (SK-LU-1; first compound 0.8 µM): 0.928
- relative viability (SK-LU-1; first compound 2.53 µM): 0.878
- relative viability (NCI-H1755; first compound 0.08 µM): 1.06
- relative viability (NCI-H1755; first compound 0.253 µM): 0.988
- relative viability (NCI-H1755; first compound 0.8 µM): 1.08
- relative viability (NCI-H1755; first compound 2.53 µM): 1.05
- relative viability (NCI-H1395; first compound 0.08 µM): 1.08
- relative viability (NCI-H1395; first compound 0.253 µM): 0.883
- relative viability (NCI-H1395; first compound 0.8 µM): 0.952
- relative viability (NCI-H1395; first compound 2.53 µM): 1.08
- relative viability (HCC-827; first compound 0.08 µM): 0.157
- relative viability (HCC-827; first compound 0.253 µM): 0.191
- relative viability (HCC-827; first compound 0.8 µM): 0.214
- relative viability (HCC-827; first compound 2.53 µM): 0.223
- relative viability (EMC-BAC-2; first compound 0.08 µM): 0.958
- relative viability (EMC-BAC-2; first compound 0.253 µM): 0.805
- relative viability (EMC-BAC-2; first compound 0.8 µM): 0.873
- relative viability (EMC-BAC-2; first compound 2.53 µM): 0.858
- relative viability (HARA; first compound 0.08 µM): 0.734
- relative viability (HARA; first compound 0.253 µM): 0.813
- relative viability (HARA; first compound 0.8 µM): 0.742
- relative viability (HARA; first compound 2.53 µM): 0.837
- relative viability (HOP-62; first compound 0.08 µM): 0.957
- relative viability (HOP-62; first compound 0.253 µM): 1.12
- relative viability (HOP-62; first compound 0.8 µM): 1.22
- relative viability (HOP-62; first compound 2.53 µM): 1.25
- relative viability (HCC-366; first compound 0.08 µM): 1.17
- relative viability (HCC-366; first compound 0.253 µM): 0.955
- relative viability (HCC-366; first compound 0.8 µM): 0.653
- relative viability (HCC-366; first compound 2.53 µM): 1.02
- relative viability (NCI-H1915; first compound 0.08 µM): 1.03
- relative viability (NCI-H1915; first compound 0.253 µM): 0.934
- relative viability (NCI-H1915; first compound 0.8 µM): 0.963
- relative viability (NCI-H1915; first compound 2.53 µM): 1.03
- relative viability (NCI-H2228; first compound 0.08 µM): 1.41
- relative viability (NCI-H2228; first compound 0.253 µM): 1
- relative viability (NCI-H2228; first compound 0.8 µM): 0.989
- relative viability (NCI-H2228; first compound 2.53 µM): 1.1
- relative viability (NCI-H1437; first compound 0.08 µM): 0.73
- relative viability (NCI-H1437; first compound 0.253 µM): 0.557
- relative viability (NCI-H1437; first compound 0.8 µM): 0.804
- relative viability (NCI-H1437; first compound 2.53 µM): 0.827
- relative viability (NCI-H460; first compound 0.08 µM): 1.04
- relative viability (NCI-H460; first compound 0.8 µM): 1.03
- relative viability (NCI-H460; first compound 2.53 µM): 1.12
- relative viability (COR-L 105; first compound 0.08 µM): 0.394
- relative viability (COR-L 105; first compound 0.253 µM): 0.35
- relative viability (COR-L 105; first compound 0.8 µM): 0.394
- relative viability (COR-L 105; first compound 2.53 µM): 0.4
